Assay results: patent EP0918774B9, “ANDROGEN RECEPTOR MODULATOR COMPOUNDS AND METHODS” (LIGAND PHARMACEUTICALS INCORPORATED, priority 1996, dated 1997)
pEC50, pIC50: −log10 of the molar value. Read-outs that look alike come from different tables or passages of the source.

Key:
Format in all cases: cell-based
MR = biological target: T1, MR (Homo sapiens, UniProt P08235); test: Co-transfection assay, MR antagonist mode
T1 construct: expressed in transfected cells; host or cells: CV-1 cells
T1 sequence (P08235 1-984): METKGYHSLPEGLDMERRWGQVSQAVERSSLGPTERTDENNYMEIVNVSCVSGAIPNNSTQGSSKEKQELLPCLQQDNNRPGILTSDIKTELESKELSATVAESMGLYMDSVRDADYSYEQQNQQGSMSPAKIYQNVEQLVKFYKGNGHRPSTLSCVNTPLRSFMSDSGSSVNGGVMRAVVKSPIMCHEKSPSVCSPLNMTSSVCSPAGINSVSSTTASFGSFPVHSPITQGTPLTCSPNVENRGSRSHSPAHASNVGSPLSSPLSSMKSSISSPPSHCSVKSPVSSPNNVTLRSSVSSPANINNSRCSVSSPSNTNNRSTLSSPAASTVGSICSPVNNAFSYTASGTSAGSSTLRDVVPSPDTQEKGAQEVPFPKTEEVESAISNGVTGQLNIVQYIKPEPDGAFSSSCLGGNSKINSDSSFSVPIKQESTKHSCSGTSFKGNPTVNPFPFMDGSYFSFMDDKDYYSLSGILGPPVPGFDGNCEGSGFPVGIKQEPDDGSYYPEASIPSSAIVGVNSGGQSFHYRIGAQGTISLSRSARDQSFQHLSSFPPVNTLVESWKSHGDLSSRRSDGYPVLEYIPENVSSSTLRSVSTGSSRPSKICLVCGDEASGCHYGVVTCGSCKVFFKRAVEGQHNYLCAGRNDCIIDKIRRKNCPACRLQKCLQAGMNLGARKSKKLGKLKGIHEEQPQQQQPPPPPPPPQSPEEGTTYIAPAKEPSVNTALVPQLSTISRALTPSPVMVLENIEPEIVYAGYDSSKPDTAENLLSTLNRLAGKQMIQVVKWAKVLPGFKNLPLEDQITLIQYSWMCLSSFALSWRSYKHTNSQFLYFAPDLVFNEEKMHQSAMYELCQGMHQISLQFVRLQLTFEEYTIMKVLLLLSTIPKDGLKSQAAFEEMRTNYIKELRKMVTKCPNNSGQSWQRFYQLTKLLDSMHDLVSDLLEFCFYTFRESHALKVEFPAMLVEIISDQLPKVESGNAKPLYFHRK
Procedure: (§1) CV-1 cells (African green monkey kidney fibroblasts) were cultured in the presence of Dulbecco's Modified Eagle Medium (DMEM) supplemented with 10% charcoal resinstripped fetal bovine serum then transferred to 96-well microtiter plates one day prior to transfection.
(§2) Three to four replicates were used for each sample.
(§3) After 40 hours, the cells were washed with PBS, lysed with a Triton X-100-based buffer and assayed for LUC and β-Gal activities using a luminometer or spectrophotometer, respectively. For each replicate, the normalized response (NR) was calculated as: LUC response/β-Gal rate where β-Gal rate = β-Gal•1x10^-5/β-Gal incubation time.

ER = biological target: T2, ER (Homo sapiens, UniProt P03372); test: Co-transfection assay, ER agonist mode
T2 construct: expressed in transfected cells; host or cells: CV-1 cells
T2 sequence (P03372 whole entry): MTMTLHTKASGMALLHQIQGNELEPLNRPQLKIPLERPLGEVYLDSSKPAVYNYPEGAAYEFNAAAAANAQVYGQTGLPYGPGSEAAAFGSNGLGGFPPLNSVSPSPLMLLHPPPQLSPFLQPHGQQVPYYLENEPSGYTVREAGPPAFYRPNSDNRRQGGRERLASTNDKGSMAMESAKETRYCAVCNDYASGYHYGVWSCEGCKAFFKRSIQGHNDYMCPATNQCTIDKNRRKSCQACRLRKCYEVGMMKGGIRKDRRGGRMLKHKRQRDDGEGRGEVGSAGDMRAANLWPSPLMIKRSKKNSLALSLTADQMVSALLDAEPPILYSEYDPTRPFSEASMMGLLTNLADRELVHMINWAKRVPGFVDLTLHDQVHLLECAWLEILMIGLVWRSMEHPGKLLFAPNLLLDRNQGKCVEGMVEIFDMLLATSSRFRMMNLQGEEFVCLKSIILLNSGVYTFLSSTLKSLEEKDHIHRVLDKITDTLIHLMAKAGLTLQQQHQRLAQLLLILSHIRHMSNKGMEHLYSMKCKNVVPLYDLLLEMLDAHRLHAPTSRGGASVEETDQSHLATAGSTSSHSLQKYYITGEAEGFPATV
Procedure: as §1, §2, §3

human AR = biological target: T3, human AR (Homo sapiens, UniProt P10275); test: cell-based
T3 construct: expressed in transfected cells; host or cells: CV-1 cells (African green monkey kidney fibroblasts), transient calcium phosphate transfection
T3 sequence (P10275 1-920): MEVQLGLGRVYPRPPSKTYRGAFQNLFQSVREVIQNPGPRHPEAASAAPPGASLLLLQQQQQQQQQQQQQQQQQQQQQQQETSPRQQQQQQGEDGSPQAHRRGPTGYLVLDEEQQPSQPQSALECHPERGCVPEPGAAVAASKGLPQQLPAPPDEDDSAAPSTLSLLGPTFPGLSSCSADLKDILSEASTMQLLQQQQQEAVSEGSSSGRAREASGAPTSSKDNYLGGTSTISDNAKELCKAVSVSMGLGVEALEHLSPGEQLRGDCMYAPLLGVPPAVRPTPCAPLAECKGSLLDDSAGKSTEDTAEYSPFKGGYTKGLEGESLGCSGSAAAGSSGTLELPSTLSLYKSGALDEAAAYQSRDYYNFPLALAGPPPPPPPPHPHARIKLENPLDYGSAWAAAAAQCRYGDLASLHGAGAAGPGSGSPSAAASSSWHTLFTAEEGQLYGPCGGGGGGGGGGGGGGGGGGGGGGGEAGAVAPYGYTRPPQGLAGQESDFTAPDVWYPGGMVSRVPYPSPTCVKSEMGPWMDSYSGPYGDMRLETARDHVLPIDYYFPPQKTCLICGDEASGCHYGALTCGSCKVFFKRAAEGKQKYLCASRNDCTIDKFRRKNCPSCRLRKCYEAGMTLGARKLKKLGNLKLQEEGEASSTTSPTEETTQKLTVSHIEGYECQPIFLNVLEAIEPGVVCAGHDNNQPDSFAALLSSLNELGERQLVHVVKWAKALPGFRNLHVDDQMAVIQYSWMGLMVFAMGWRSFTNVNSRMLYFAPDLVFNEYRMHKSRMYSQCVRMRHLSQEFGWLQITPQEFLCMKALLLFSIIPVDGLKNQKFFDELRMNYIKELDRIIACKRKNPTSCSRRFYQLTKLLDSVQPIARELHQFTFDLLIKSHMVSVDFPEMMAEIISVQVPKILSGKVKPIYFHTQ
From the text: The co-transfection assay provides a method for identifying functional agonists and partial agonists which mimic, or antagonists which inhibit, the effect of native hormones, and quantifying their activity for responsive IR proteins. In this regard, the co-transfection assay mimics an in vivo system in the laboratory. Importantly, activity in the co-transfection assay correlates very well with known in vivo activity, such that the co-transfection assay functions as a qualitative and quantitative predictor of a tested compounds in vivo pharmacology. See, e.g., T. Berger et al. 41 J. Steroid Biochem. Molec.
as §1
The reporter plasmid, MTV-LUC, contains the cDNA for firefly luciferase (LUC) under control of the mouse mammary tumor virus (MTV) long terminal repeat, a conditional promoter containing an androgen response element. See e.g, Berger et al. supra. In addition, pRS-β-Gal, coding for constitutive expression of E. colβ-galactosidase (β-Gal), was included as an internal control for evaluation of transfection efficiency and compound toxicity.
as §2, §3

Compound	pIC50 (MR)	pEC50 (ER)	pEC50 (human AR)	pIC50 (human AR)	AR Antagonist CV-1 Cells Efficacy (%) (human AR; % of maximal inhibition, fixed DHT at EC50, na = not active)	AR Agonist CV-1 Cells Efficacy (%) (human AR; percent maximal response relative to reference agonist DHT, na = not active)	pEC50 (human AR; read-out: AR Potency Agon, Table 2, na = not active)	AR Agonist CV-1 Cells Efficacy (%) (human AR)	AR Antagonist CV-1 Cells Efficacy (%) (human AR)	pEC50 (human AR; read-out: AR Potency Agon)
CC12CCCN1c1cc3[nH]c(=O)c(F)c(C(F)(F)F)c3cc1CC2 (racemic) [Compound 102, (R/S)-3-Fluoro-6,7,7a,11-tetrahydro-7a-methyl-4-trifluoromethyl-2-pyridono[5,6-g]pyrrolidino[1,2-a]quinoline]	< 5.00	< 5.00	< 5.00	7.54	86%	na (not active (i.e. efficacy of <20 and potency of >10,000))	< 5.00	–	–	–
CC12CCCN1c1cc3nc(O)cc(C(F)(F)F)c3cc1CC2 (racemic) [Compound 101, (R/S)-6,7,7a,11-Tetrahydro-7a-methyl-4-trifluoromethyl-2-pyridono[5,6-g]pyrrolidino[1,2-a]quinoline]	< 5.00	< 5.00	< 5.00	6.44	–	–	–	na (key: na: not active (i.e. efficacy of <20 and potency of >10,000))	80%	< 5.00
